Assays:
[1] = tested on: rat hippocampal and cortical cultures (hippocampal neurons); test: glutamate induced toxicity in hippocampal cultures, count of live neurons; type: cell-based; details: 30 µM glutamate
Experimental: (§1) Briefly, rat hippocampal and cortical cultures were prepared according to the method of Furshpan and Potter with some modifications. [Neuron 3:199 (1989)]. Brains were removed from newborn Long Evans pups anesthetized with an injection of 0.1 ml of 20% chloral hydrate. The hippocampi were dissected out and separated from the rest of the cortex. Both tissues were enzymatically digested in 5 ml Earle's Balanced Salt Solution (EBSS) containing 20 u/ml papain, 1 mM L-cysteine, and 0.5 mM EDTA for 30 minutes at 37°C with gentle rocking. The hippocampi and cortical tissues were then washed once with EBSS and the digestion was stopped by incubating at 37°C for 30 minutes with 3-5 mis of inhibitor solution containing 1 mg/ml ovomucoid and 1 mg/ml albumin in EBSS. The digested hippocampi and cortical tissues were washed twice with DME without L-glutamine with 4.5 g/L dextrose before being triturated in 2 ml of DME supplemented with 5% fetal calf serum, 5% rat serum, 50 u/ml penicillin, 0.05 mg/ml streptomycin and MlTO+ serum extender [a medium supplement from Collaborative Biomedical Products] (10% DME). After 50 triturations, undissociated tissue was allowed to settle and the dissociated cell suspension was removed. A fresh 2 ml of 10% DME was added to the remaining tissue and the trituration was repeated. The two cell suspension aliquots were pooled and the cell density was determined with a hemacytometer.
(§2) 30,000 hippocampal cells in 150 µL were plated per well in 96-well plates and incubated at 37°C in 5% CO2. Cortical cells were plated at a density of 500,000 cells per well in 24-well plates. When glia cells were confluent (after approximately 3 days), 4-10 µM cytosine β-D-arabinofuranoside was added to each well to prevent further proliferation. One week after plating, the medium was removed and replaced with DME supplemented with 2.5% fetal calf serum, 2.5% rat serum, 50 u/ml penicillin, 0.05 mg/ml streptomycin, MITO+, 1 mM kynurenate and 10 mM MgCl2 (5% DME + KM). Kynurenate is a nonspecific blocker of glutamate receptors and elevated levels of magnesium block calcium and sodium influx through NMDA receptor channels. The addition of KM prevents neurotoxicity that occurs with glutamate found in serum, and allows neurons to be maintained in culture for up to several months. The cells were fed weekly by exchanging half the medium with fresh 5% DME + KM.
The compound to be evaluated was dissolved in DMSO to make 10 mM stock solutions and stored in aliquots at -80°C. Just before each procedure was carried out, aliquots of the stock solutions were thawed and diluted in DME or Hanks' Balanced Salt Solution (HBSS) containing 44 mM sodium bicarbonate, 10 mM glucose, and 30 µM glutamate to obtain test concentrations from 1 nM to 10 µM.
After 4-12 weeks in culture, hippocampal cells were washed three times and fed with test compound in HBSS, or serum free DME (SF DME) and 30 to 150 µM glutamate. At least three wells in every test procedure were treated with each drug concentration. 30 µM Glutamate kills 70-80% of the neurons in younger cultures, and more in older cultures. The toxicity induced by 30 µM glutamate was blocked by 1 mM kynurenate + 10 mM MgCl2 (KM).
Following overnight incubation at 37°C, the number of live hippocampal neurons remaining in five fields, representing the north, south, east, and west extremes and the center of each well, were counted. Each field was visualized through a 10x objective with a 15x eyepiece and was approximately 1.54 mm^2 in area. Conditions were generally done in triplicate. The mean number of neurons per well and the standard deviation for each condition were calculated. The mean number of neurons remaining in the control 30 µM glutamate condition reflects those that were not sensitive to glutamate toxicity.

[2] = tested on: Cortical neurons; test: ischemia induced neurotoxicity in cortical cultures with NMDA and AMPA inhibitors, LDH activity; type: cell-based, rat; details: 1 week old cortical cell cultures
Experimental: as §1, §2
Cortical neurons were washed six times with DME without glucose that has been deoxygenated by bubbling the medium with 95% N2/5% CO2 for at least 10 minutes, to induce an ischemic state that will cause neuronal cell death that can be observed by measuring lactate dehydrogenase levels, as the amount of LDH activity in each well is directly correlated with the number of dead cells. 100 µM [2-(8,9-Dioxo-2,6-diazabicyclo[5.2.0]non-1(7)-en-2-yl)-ethyl]-phosphonic acid (disclosed in U.S. Patent 5,168,103 and 10 µM YM90K were added to certain wells to block NMDA and AMPA glutamate receptors, respectively. To test wells, 1 µM of the compound of Example 1 was added. Control wells were washed with normal DME with glucose and 100 µM [2-(8,9-dioxo-2,6-diazabicyclo[5.2.0]non-1(7)-en-2-yl)ethyl]phosphonic acid. 5 µL samples were taken from each well at different time points following ischemia and the LDH activity in those samples was determined by adding 250 µL of 2 mg NADH/25 mL phosphate buffer to each sample. After incubating for 20-30 minutes, 10 µL of 22.7 mM pyruvate was added and the optical density (OD) at 340 nm read. The change in optical density with time (mOD/min) reflects the amount of LDH in the sample. Higher optical density changes means more LDH activity indicating more cell death. Samples were taken from 4-8 wells per condition and the average and standard deviation for each condition and time point determined.

[3] = 2 nM test compound, HBSS, overnight incubation
[4] = 20 nM test compound, HBSS, overnight incubation
[5] = 200 nM test compound, HBSS, overnight incubation
[6] = Time 8 hours, test compound administered with the NMDA and AMPA inhibitors
[7] = Time 13 hours, with the NMDA and AMPA inhibitors
[8] = Time 24 hours, with the NMDA and AMPA inhibitors
[9] = Time 30 hours, with the NMDA and AMPA inhibitors

Compound: CO[C@H]1C[C@@H]2CC[C@@H](C)[C@@](O)(O2)C(=O)C(=O)N2CCCC[C@H]2C(=O)O[C@H]([C@H](C)C[C@@H]2CC[C@@H](O)[C@H](OC)C2)CC(=O)[C@H](C)/C=C(\C)[C@@H](O)[C@@H](OC)C(=O)[C@H](C)C[C@H](C)/C=C/C=C/C=C/1C [Example 1, Rapamycin]
- No. Neurons Alive [1, 3]: 63
- No. Neurons Alive ([1]; 10nM test compound, SF DME, overnight incubation, mean per well (five fields)): 114
- No. Neurons Alive [1, 4]: 71
- No. Neurons Alive ([1]; 100nM test compound, SF DME, overnight incubation): 92
- No. Neurons Alive [1, 5]: 229
- No. Neurons Alive ([1]; 1µM test compound, SF DME, overnight incubation): 46
- No. Neurons Alive ([1]; 10µM test compound, SF DME, overnight incubation): 47
- LDH Activity [2, 6]: 1.04 mOD/min
- LDH Activity [2, 7]: 3.08 mOD/min
- LDH Activity [2, 8]: 9.00 mOD/min
- LDH Activity [2, 9]: 14.02 mOD/min

Compound: CO[C@H]1C[C@@H]2CC[C@@H](C)[C@@](O)(O2)C(=O)C(=O)N2CCCC[C@H]2C(=O)O[C@H]([C@H](C)C[C@@H]2CC[C@@H](OS(=O)(=O)c3ccc(N=Nc4ccc(N(C)C)cc4)cc3)[C@H](OC)C2)CC(=O)[C@H](C)/C=C(\C)[C@@H](O)[C@@H](OC)C(=O)[C@H](C)C[C@H](C)/C=C/C=C/C=C/1C [Example 3, Rapamycin 42-ester with 4-[[4-(dimethylamino)phenyl]azo]benzenesulfonic acid]
- No. Neurons Alive [1, 3]: 98
- No. Neurons Alive [1, 4]: 285
- No. Neurons Alive [1, 5]: 241
- LDH Activity [2, 6]: 0.84 mOD/min
- LDH Activity [2, 7]: 2.36 mOD/min
- LDH Activity [2, 8]: 7.03 mOD/min
- LDH Activity [2, 9]: 11.25 mOD/min

Compound: O=C(O)c1cc(O)c2ccccc2n1 [Kynurenate, kynurenate, reference compound]
- No. Neurons Alive ([1]; 1 mM, HBSS, overnight incubation (second table)): 202
- No. Neurons Alive ([1]; 1 mM, SF DME, overnight incubation (first table)): 82

Compound: Rapamycin 1,3, Diels Alder adduct with Phenyltriazolinedione [Example 2]
- No. Neurons Alive [1, 3]: 110
- No. Neurons Alive [1, 4]: 180
- No. Neurons Alive [1, 5]: 127
- LDH Activity [2, 6]: 1.08 mOD/min
- LDH Activity [2, 7]: 2.31 mOD/min
- LDH Activity [2, 8]: 7.69 mOD/min
- LDH Activity [2, 9]: 12.43 mOD/min

Compound: Rapamycin 1,3-Diels Alder adduct with methyltriazolinedione [Example 4]
- No. Neurons Alive [1, 3]: 117
- No. Neurons Alive [1, 4]: 130
- No. Neurons Alive [1, 5]: 157
- LDH Activity [2, 6]: 0.91 mOD/min
- LDH Activity [2, 7]: 2.54 mOD/min
- LDH Activity [2, 8]: 8.21 mOD/min
- LDH Activity [2, 9]: 13.31 mOD/min

Compound: Rapamycin-O-benzyl-27-oxime [Example 5]
- No. Neurons Alive [1, 3]: 131
- No. Neurons Alive [1, 4]: 96
- No. Neurons Alive [1, 5]: 135
- LDH Activity [2, 6]: 0.74 mOD/min
- LDH Activity [2, 7]: 1.65 mOD/min
- LDH Activity [2, 8]: 4.82 mOD/min
- LDH Activity [2, 9]: 8.83 mOD/min

From patent EP0778023B1, “Product comprising rapamycin or particular derivatives and an NMDA or AMPA antagonist for use for the treatment of epilepsy or Huntington's Disease, and the use of rapamycin or particular derivatives for the manufacture of a medicament for the treatment of epilepsy or Huntington's Disease” (Wyeth, priority 1995, dated 1997)
